According to US8282721B2, “Coloring composition, thermal transfer recording ink sheet, thermal transfer recording method, color toner, inkjet ink, color filter, and arylidene-pyrazolone dye” (FUJIFILM Corporation, priority 2008, dated 2012):

Legend:
Type in all cases: physicochemical
[1] = Dye solubility in methyl ethyl ketone/toluene; set-up: key: A (easily soluble); B (soluble); C (difficult to dissolve, but soluble); details: solvent methyl ethyl ketone/toluene (1/1, w/w), ranked in three
Text: The dye solubility of each compound in the solvent of methyl ethyl ketone/toluene (1/1, w/w) was ranked in three, A (easily soluble), B (soluble), C (difficult to dissolve, but soluble).

[2] = Light fastness of thermal transfer recorded image (Xe light exposure); details: Xe light (17000 lux) for 7 days; retention of status A reflection density 1.0; image from thermal transfer ink sheet
Text: (§1) The thermal transfer recording ink sheet produced in Example 201 and the image-receiving material constructed as above were combined in such a manner that the dye-donating layer could face the image-receiving layer, and this was printed using a thermal head applied to the back of the dye-donating material. The output power of the thermal head was 0.25 W/dot, pulse width was from 0.15 to 15 msec, the dot density was 6 dots/mm. In that manner, the magenta dye was imagewise fixed on the image-receiving layer of the image-receiving material, and as a result, a sharp image print with no transfer unevenness was obtained.
(§2) The thermal transfer recording ink sheets produced in Example 202 to 204 and produced in Comparative Example 201 to 203 were used in place of the thermal transfer recording ink sheet produced in Example 201, tested for image recording.
Next, the thermal transfer image-receiving material that had been recorded by the thermal transfer were exposed to a Xe light (17000 lux) for 7 days, and tested for the light stability (light fastness) of the recorded images. After the exposure, the status A reflection density of the part of each sample having an original status A reflection density of 1.0 before the exposure was measured, and the retention (by percentage) to the reflection density of 1.0 after exposure to that before exposure indicates the image stability. With the retention percentage, the samples were ranked in three, A (from 90% to less than 100%), B (from 80% to less than 90%), C (less than 80%).

[3] = Wet heat fastness of thermal transfer recorded image (80° C., 70% RH, dark); details: 80° C. and 70% RH in a dark place for 7 days; retention of Status A reflection density 1.0; image from thermal transfer ink sheet
Text: as §1, §2
Further, the thermal transfer image-receiving material that had been recorded by the thermal transfer in the same manner as above were stored under the condition of 80° C. and 70% RH in a dark place for 7 days, and checked for the wet heat stability (wet heat fastness) of the image. After exposure to light, the Status A reflection density of the area having an initial Status A reflection density of 1.0 was measured; and the density retentiveness (percentage) relative to the original reflection density 1.0 before exposure to light was computed. Based on the computed data, the samples were evaluated with regard to the stability into three ranks, A (from 90% to less than 100%), B (from 80% to less than 90%), and C (less than 80%).

[4] = Evaluation of maximum absorption wavelength (absorption spectrometry in ethyl acetate solution); details: concentration 1×10^−6 mol/L, optical path length 10 mm
Protocol: <Evaluation of Maximum Absorption Wavelength>
The thus-obtained arylidene-pyrazolone dyes of Examples 101 to 105 were analyzed absorption spectrometry in an ethyl acetate solution (concentration: 1×10^−6 mol/L, optical path length: 10 mm).

| Solubility [1] | Light Fastness [2] | Wet Heat Fastness [3] | Maximum Absorption Wavelength [4] [nm] | Molecule |
| --- | --- | --- | --- | --- |
| B | A (A (from 90% to less than 100%)) | C (C (less than 80%)) | – | CCOC1=NN(c2ccccc2)C(=O)/C1=C\c1ccc(N(CC)CC)cc1 [Comparative Dye 2] |
| A | B (B (from 80% to less than 90%)) | C (C (less than 80%)) | – | CCOC1=NN(C)C(=O)/C1=C\c1ccc(N(CC)CC)cc1 [Comparative Dye 3] |
| A | A (A (from 90% to less than 100%)) | A (A (from 90% to less than 100%)) | 468 | CCOC1=NN(S(C)(=O)=O)C(=O)/C1=C\c1ccc(N(CC)CC)cc1 [Compound Y-1] |
| A | A (A (from 90% to less than 100%)) | A (A (from 90% to less than 100%)) | 462 | CCOC1=NN(S(=O)(=O)N(C)C)C(=O)/C1=C\c1ccc(N(CC)CC)cc1 [Compound Y-8] |
| A | A (A (from 90% to less than 100%)) | C (C (less than 80%)) | – | C.I.Disperse Yellow 201 [Comparative Dye 1] |
